Measured values taken from US4179441A, “Fungidal and herbicidal 2-substituted-3-oxa-3aλ^4, 4-dithia-6-halo-1,5-diazapentalene” (Chevron Research Company, priority 1977, dated 1979).

What was measured:
[1] = system: Septoria apii; conditions: in vivo
[2] = system: Erysiphe polygoni; experiment: Powdery Mildew (bean seedlings); format: in vivo; conditions: 240 h, 250 ppm spray on bean seedlings, about 10 days, relative to untreated check plants
From the text: The powdery mildew test was made using bean seedlings (var. Bountiful) with well-developed primary leaves. The pathogen was Erysiphe polygoni. The bean seedlings were sprayed with a 250 ppm solution of the test compound in an acetone-water mixture containing a nonionic emulsifier. The treated plants were inoculated one day after spray application of the test compound with the pathogen. […] The rate of infection on the leaves was made after about 10 days. The percent disease control provided by a given test compound was based on the disease reduction relative to untreated check plants.

[3] = system: Crabgrass (Digitaria sanguinalis); experiment: Pre-Emergent herbicidal test; format: in vivo; conditions: 33 micrograms/cm^2, 3 weeks, 0-to-100 scale, 100 = complete kill
Procedure: (§1) Pre-emergent herbicidal tests on representative compounds of the invention were made using the following method:
(§2) An acetone solution of the test compound was prepared by mixing 750 mg of the compound, 220 mg of a nonionic surfactant and 25 ml of acetone. This solution was added to approximately 125 ml of water containing 156 mg of surfactant.
(§3) Seeds of the test vegetation were planted in a pot of soil and the test solution was sprayed uniformly onto the soil surface at a dose of 33 micrograms/cm^2. The pot was watered and placed in a greenhouse. […] At the end of this period, the herbicidal effectiveness of the compound was rated based on the physiological observations. A 0-to-100 scale was used, 0 representing no phytotoxicity, 100 representing complete kill.

[4] = system: Lambsquarter (Chenopodium album); experiment: Pre-Emergent herbicidal test; format: in vivo; conditions: 33 micrograms/cm^2, 3 weeks, 0-to-100 scale, 100 = complete kill
Procedure: as §1, §2, §3

[5] = system: Mustard (Brassica arvensis); experiment: Pre-Emergent herbicidal test; format: in vivo; conditions: 33 micrograms/cm^2, 3 weeks, 0-to-100 scale, 100 = complete kill
Procedure: as §1, §2, §3

[6] = system: Watergrass (Echinochloa crusgalli); experiment: Pre-Emergent herbicidal test; format: in vivo; conditions: 33 micrograms/cm^2, 3 weeks, 0-to-100 scale, 100 = complete kill
Procedure: as §1, §2, §3

[7] = system: Wild Oats (Avena fatua); experiment: Pre-Emergent herbicidal test; format: in vivo; conditions: 33 micrograms/cm^2, 3 weeks, 0-to-100 scale, 100 = complete kill
Procedure: as §1, §2, §3

[8] = system: Wild Oats (Avena fatua); experiment: Post-emergent herbicidal test; format: in vivo; conditions: 0-to-100 scale
[9] = system: Watergrass (Echinochloa crusgalli); experiment: Post-emergent herbicidal test; format: in vivo; conditions: 0-to-100 scale
[10] = system: Crabgrass (Digitaria sanguinalis); experiment: Post-emergent herbicidal test; format: in vivo; conditions: 0-to-100 scale
[11] = system: Mustard (Brassica arvensis); experiment: Post-emergent herbicidal test; format: in vivo; conditions: 0-to-100 scale
[12] = system: Lambsquarter (Chenopodium album); experiment: Post-emergent herbicidal test; format: in vivo; conditions: 0-to-100 scale

Cc1cc(Cl)ccc1OCC1=NC2=S(O1)SN=C2Cl (stereo not drawn) [Compound 19]
Celery Late Blight % Control [1]: 92% | pest or weed control at 250 ppm [2]: 57% | Herbicidal Effectiveness - Pre, C [3]: 85 | Herbicidal Effectiveness - Pre, L [4]: 100 | Herbicidal Effectiveness - Pre, M [5]: 100 | Herbicidal Effectiveness - Pre, W [6]: 75 | Herbicidal Effectiveness - Pre, O [7]: 35 | Herbicidal Effectiveness - Post, O [8]: 10 | Herbicidal Effectiveness - Post, W [9]: 40 | Herbicidal Effectiveness - Post, C [10]: 0 | Herbicidal Effectiveness - Post, M [11]: 100 | Herbicidal Effectiveness - Post, L [12]: 95
